Data reported in US20250145566A1, “PHENETHYLAMINE DERIVATIVES, COMPOSITIONS, AND METHODS OF USE” (Cybin IRL Limited, priority 2022, published 2025).
Entries after “also recorded” stand apart in the source; their conditions may differ. Read-outs that look alike come from different tables or passages of the source.

What was measured:
[1] = Rat liver microsomes (RLM) in vitro metabolism; assay type: in vitro ADME; details: Sprague-Dawley
Method: (§1) Rat Liver Microsomes (RLM). Male Sprague-Dawley rat liver microsomes were purchased from XenoTech. The reaction mixture, minus NADPH, was prepared as described in Table 10. The test compound was added into the reaction mixture at a final concentration of 1 μM. The control compound, testosterone, was run simultaneously with the test compound in a separate reaction. The reaction mixture (without cofactor) was equilibrated in a shaking water bath at 37° C. for 5 minutes. The reaction was initiated by the addition of the cofactor, and the mixture was incubated in a shaking water bath at 37° C. Aliquots (150 μL) were withdrawn at 0, 5, 10, 20, 30, 60, and for some assays at 120 minutes. Test compound and testosterone samples were immediately combined with 150 μL of ice-cold acetonitrile (ACN) containing 0.1% formic acid and internal standard to terminate the reaction. The samples were then mixed and centrifuged to precipitate proteins. All samples were assayed by LC-MS/MS using electrospray ionization. The peak area response ratio (PARR) of analyte to internal standard at each time point was compared to the PARR at time 0 to determine the percent remaining at each time point. Half-lives were calculated using GraphPad software, fitting to a single-phase exponential decay equation.
(§2) In a different series of reactions using RLM, a 10 mM stock solution of the test compound was prepared in DMSO. From this stock solution, an intermediate stock solution of 1 mM was prepared by diluting the compound in DMSO and from this intermediate stock solution, a working solution of 0.30 mM was prepared by diluting the compound in ACN:Water (50:50) as a cocktail of two compounds (i.e., 30 μL the non-deuterated and the deuterated compound in 40 μL diluent in 100 μL total volume). Following this, a master mix of rat liver microsomes (final concentration 0.5 mg/ml, Xenotech Cat #R1000; Lot #1610290) and 0.1 M potassium phosphate buffer was prepared and pre-incubated for 5 min at 37° C. The test compound mixture was then added to achieve a final test article concentration of 1 μM (for each analog if co-dosed; 0.2% DMSO); verapamil was used as a positive control. Subsequently, 10 mM NADPH prepared in 0.1 M potassium phosphate buffer was added (final concentration 1 mM) to initiate the reaction and samples were incubated at 37° C. for the desired time points (0, 5, 15, 30, 45, 60 min). At each time point, 40 μL of the samples were withdrawn and reactions were stopped using 200 μL chilled ACN containing 0.1% formic acid and internal standard carbamazepine (10 ng/mL). The samples were centrifuged, and the supernatant was analyzed by LC-MS/MS. The percent compound remaining at each time point was calculated with respect to that of the 0 min sample. The data were then analyzed to calculate half-life. Blank samples were prepared using DMSO (without the test compound).

5-HT2A receptor = molecular target: T1, 5-HT2A receptor (Homo sapiens, UniProt P28223); experiment: 5-HT2A radioligand ([3H]LSD) competition binding; details: for affinity at 5-HT2A receptors, comparison in words: [3H]LSD competition binding
T1 construct: host or cells: HEK293 (ATCC CRL-1573), transient, membranes

Rat Liver Microsomes = experiment: Rat liver microsomes (RLM) in vitro metabolism; assay type: in vitro ADME; details: for disappearance in RLM, NADPH dependence: result in words
Method: as §1, §2

MAO-B = molecular target: T2, MAO-B (Homo sapiens, UniProt P27338); experiment: human MAO-B in vitro metabolism; assay type: in vitro ADME; details: human MAO-B enzyme (Corning), test compound 1 μM, read-out: MAO-B t1/2
T2 construct: purchased Corning 456284
T2 sequence (P27338 1-520): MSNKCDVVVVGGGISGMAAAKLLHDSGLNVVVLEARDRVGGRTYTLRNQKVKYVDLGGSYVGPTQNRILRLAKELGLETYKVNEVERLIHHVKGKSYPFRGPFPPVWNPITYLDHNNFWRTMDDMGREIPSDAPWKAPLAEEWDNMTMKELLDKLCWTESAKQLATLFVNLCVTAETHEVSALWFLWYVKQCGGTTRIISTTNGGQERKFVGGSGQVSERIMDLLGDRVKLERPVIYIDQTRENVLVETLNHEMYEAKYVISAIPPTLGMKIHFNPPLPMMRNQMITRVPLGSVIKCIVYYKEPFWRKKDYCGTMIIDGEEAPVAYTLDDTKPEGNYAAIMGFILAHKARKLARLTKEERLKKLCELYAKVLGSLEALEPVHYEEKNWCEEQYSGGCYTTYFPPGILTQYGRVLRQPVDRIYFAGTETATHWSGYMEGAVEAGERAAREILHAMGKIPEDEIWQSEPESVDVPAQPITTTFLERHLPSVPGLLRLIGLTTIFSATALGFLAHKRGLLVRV
Method: (§3) In a different series of reactions using human MAO-A and MAO-B, a 10 mM stock solution of the test compound was prepared in DMSO. From this stock solution, an intermediate stock solution of 1 mM was prepared by diluting the compound in DMSO and from this intermediate stock solution, a working solution of 0.30 mM was prepared by diluting the compound in ACN:Water (50:50) as cocktail of 2 compounds (30 μL each compound in 40 μL diluent for 100 μL). Following this, a master mix of 0.1 M potassium phosphate buffer and test compound mixture i.e., the non-deuterated and the deuterated analog, were prepared to achieve final drug concentration of 1 μM (0.2% DMSO) for the required number of reactions. The aforementioned master mix was pre-incubated at 37° C. for 5 min. To this master mix, MAO-A (final protein conc. 0.1 mg/mL; Corning Cat #456283; Lot #1173003) or MAO-B (final protein conc. 0.1 mg/mL; Corning Cat #456284; Lot #0318001) was added to initiate the reaction. The samples were then incubated at 37° C. for the desired time points. At each time point (0, 5, 15, 30, 45, 60), 40 μL of the samples were withdrawn and reactions were stopped using 200 μL chilled ACN containing 0.1% formic acid and internal standard Carbamazepine (10 ng/mL). The samples were centrifuged, and the supernatant was analyzed by LC-MS/MS. The percent compound remaining at each time point was calculated with respect to that of the 0 min sample. The data were then analyzed to calculate half-life and intrinsic clearance (CLint). Blank samples were prepared using DMSO (without the test compound).

MAO-A = molecular target: T3, MAO-A (Homo sapiens, UniProt P21397); experiment: Recombinant human MAO-A in vitro metabolism; assay type: in vitro ADME; details: for half-life at 1 µM: human, recombinant human MAO-A
T3 construct: purchased XenoTech (first series); Corning (second series) Corning 456283
T3 sequence (P21397 1-527): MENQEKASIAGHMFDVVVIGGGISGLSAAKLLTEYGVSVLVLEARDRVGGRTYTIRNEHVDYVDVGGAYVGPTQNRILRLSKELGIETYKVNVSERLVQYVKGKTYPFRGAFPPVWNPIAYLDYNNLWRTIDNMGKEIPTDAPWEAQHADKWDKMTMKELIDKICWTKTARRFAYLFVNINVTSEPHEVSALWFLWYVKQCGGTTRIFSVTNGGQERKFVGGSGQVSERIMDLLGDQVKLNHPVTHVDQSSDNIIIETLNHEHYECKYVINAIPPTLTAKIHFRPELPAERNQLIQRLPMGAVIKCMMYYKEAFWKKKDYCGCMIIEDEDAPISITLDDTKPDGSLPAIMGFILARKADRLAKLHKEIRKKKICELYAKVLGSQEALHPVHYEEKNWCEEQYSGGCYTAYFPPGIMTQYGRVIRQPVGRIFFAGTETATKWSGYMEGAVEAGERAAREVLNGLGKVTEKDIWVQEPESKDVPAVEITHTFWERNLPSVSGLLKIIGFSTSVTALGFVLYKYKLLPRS
Method: Recombinant human MAO-A. hrMAO-A and MAO control were purchased from XenoTech. The reaction mixture was prepared as described in Table 11. The test compound was added into the reaction mixture at a final concentration of 1 μM. The positive control kynuramine (25 μM) was run simultaneously with the test compound in a separate reaction. The reaction mixture (without test compounds or kynuramine) was equilibrated in a shaking water bath at 37° C. for 5 minutes. The reaction was initiated by the addition of the test compound or kynuramine, and the mixture was incubated in a shaking water bath at 37° C. Aliquots (150 μL) of the test compound reaction mixture were withdrawn at 0, 5, 10, 20, 30, 60, and for some assays at 120 minutes. Aliquots (150 μL) of the positive control reaction mixture were withdrawn at 0 and 30 minutes. Test compound and kynuramine samples were immediately combined with 150 μL of ice-cold 100% acetonitrile containing 0.1% formic acid and internal standard (0.2 μM metoprolol) to terminate the reaction. The samples were then mixed and centrifuged to precipitate proteins. All samples were assayed by LC-MS/MS. The peak area response ratio (PARR) of analyte to internal standard at each time point was compared to the PARR at time 0 to determine the percent remaining at each time point. Half-lives were calculated using GraphPad software, fitting to a single-phase exponential decay equation.
as §3

5-HT2A (h) = molecular target: T4, 5-HT2A (h) (Homo sapiens, UniProt P28223); details: literature, single enantiomers, cited from earlier work; for EC50: read-out: Function 5-HT2A EC50
T4 construct: expressed in transfected cells; host or cells: HEK-293 cells

[2] = rat liver microsomes (Table 18), read-out: RLM t1/2
[3] = pH 7.4, rat liver microsomes, test compound 1 μM, * = apparent NADPH independent reaction, read-out: RLM t1/2
[4] = 1 μM test compound, read-out: half-life, MAO-A metabolism
[5] = human recombinant MAO-A, test compound 1 μM, read-out: MAO-A t1/2
[6] = rat liver microsomes (Table 17), read-out: RLM t1/2

T1 sequence (P28223 whole entry): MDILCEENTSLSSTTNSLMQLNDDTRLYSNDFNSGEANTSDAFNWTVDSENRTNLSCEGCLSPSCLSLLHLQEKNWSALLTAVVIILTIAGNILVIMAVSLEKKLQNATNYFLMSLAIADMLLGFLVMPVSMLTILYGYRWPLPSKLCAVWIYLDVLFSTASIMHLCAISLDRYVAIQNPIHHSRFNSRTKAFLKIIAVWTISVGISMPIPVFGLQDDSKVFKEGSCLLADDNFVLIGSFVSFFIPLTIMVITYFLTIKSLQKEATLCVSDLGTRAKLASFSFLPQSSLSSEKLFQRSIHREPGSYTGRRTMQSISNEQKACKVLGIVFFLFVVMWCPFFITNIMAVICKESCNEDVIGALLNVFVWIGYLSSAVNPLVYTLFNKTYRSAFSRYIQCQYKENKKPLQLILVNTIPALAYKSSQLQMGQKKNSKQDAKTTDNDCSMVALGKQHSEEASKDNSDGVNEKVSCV
T4 sequence (P28223 whole entry): as above

COc1cc(SC(F)(F)F)c(OC)cc1CC(C)N (racemic) [IV-1 (racemic)]
half-life at 1 µM [1, 2]: 40.7 min | Ki (5-HT2A receptor; agonist radioligand: [3H]LSD (Table 18), read-out: 5HT2A Ki): 7 nM

COc1cc(SC(F)(F)F)c(OC)cc1CC(C)N (racemic) [IV-1, 1-(2,5-dimethoxy-4-((trifluoromethyl)thio)phenyl)propan-2-amine]
stability / half-life in RLMs, comparison in words (Rat Liver Microsomes; compared with Reference Compound 2): greater stability in RLMs than Reference Compound 2 | affinity at 5-HT2A receptors, comparison in words (5-HT2A receptor): affinity at 5-HT2A receptors equal or superior to both enantiomers of Reference Compound 2

[2H]C1([2H])Oc2ccc(CCN)cc2O1 [II-11, 2-(benzo[d][1,3]dioxol-5-yl-2,2-d2)ethan-1-amine]
disappearance in RLM, NADPH dependence (Rat Liver Microsomes): NADPH-independent | half-life at 1 µM [1, 3]: < 5 min | half-life at 1 µM (MAO-B): < 5 min | half-life at 1 µM (MAO-A; [4]): ≤ 8 min | half-life at 1 µM (MAO-A; [5]): 7.97 min

[2H]C1([2H])Oc2cc(CCN)ccc2S1 [II-15, 2-(benzo[d][1,3]oxathiol-6-yl-2,2-d2)ethan-1-amine]
half-life at 1 µM [1, 3]: < 5 min | half-life at 1 µM (MAO-B): < 5 min | half-life at 1 µM (MAO-A; [4]): ≤ 8 min | half-life at 1 µM (MAO-A; [5]): 4.42 min

[2H]C1([2H])Oc2cc(CC(C)N)ccc2S1 (stereo not shown) [II-17, 1-(benzo[d][1,3]oxathiol-6-yl-2,2-d2)propan-2-amine]
half-life at 1 µM [1, 3]: 12.6 min | half-life at 1 µM (MAO-B): 892 min | half-life at 1 µM (MAO-A; [5]): > 120 min | stability in the presence of MAO-A (MAO-A; result in words): stable

COc1cc(CCN)cc(OC)c1SC(F)(F)F [III-5, 2-(3,5-dimethoxy-4-((trifluoromethyl)thio)phenyl)ethan-1-amine]
RLM t1/2 (Rat Liver Microsomes; rat liver microsomes (Table 17)): >120 min | half-life at 1 µM ([1]; rat, rat liver microsomes, 1 μM test compound, read-out: half-life in the presence of rat liver microsome): > 120 min | Ki (5-HT2A receptor): 1.6 nM | affinity at 5-HT2A receptors, comparison in words (5-HT2A receptor): superior affinity at 5-HT2A receptors compared to Reference Compound 1; also recorded: affinity equal to or better than classic 2,4,5-substituted 5-HT2A agonists, such as Reference Compounds 2-4 | Ki (5-HT2A receptor; read-out: 5HT2A Ki at the low-affinity inactive state, [3H]LSD, two-site fit): 676 nM

[2H]C([2H])([2H])Oc1cc(SC)c(OC([2H])([2H])[2H])cc1C[C@@H](C)N [IV-9 (R)]
half-life at 1 µM [1, 2]: 16.6 min | Ki (5-HT2A receptor): 26 nM | half-life at 1 µM (MAO-A; Table 18, read-out: MAO-A t1/2): > 120 min

[2H]C([2H])([2H])Oc1cc(SC)c(OC([2H])([2H])[2H])cc1C[C@H](C)N [IV-9 (S)]
half-life at 1 µM [1, 2]: 6.3 min | Ki (5-HT2A receptor): 56 nM | half-life at 1 µM (MAO-A; Table 18, read-out: MAO-A t1/2): > 120 min

C[C@@H](N)Cc1ccc2c(c1)OCO2 [R-MDA]
Function 5-HT2A EMAX (5-HT2A (h)): EMAX = 95% | EC50 (5-HT2A (h)): 5600 nM

COc1cc(SC)c(OC)cc1C[C@@H](C)N [Reference Compound 2 (R)]
half-life at 1 µM [1, 6]: 16 min | Ki (5-HT2A receptor): 7 nM | half-life at 1 µM (MAO-A; Table 18, read-out: MAO-A t1/2): > 120 min

COc1cc(SC)c(OC)cc1C[C@H](C)N [Reference Compound 2 (S)]
half-life at 1 µM [1, 6]: 6.34 min | Ki (5-HT2A receptor): 18 nM | half-life at 1 µM (MAO-A; Table 18, read-out: MAO-A t1/2): > 120 min

COc1cc(SC)c(OC)cc1CCN [Reference Compound 3, 2-(2,5-dimethoxy-4-(methylthio)phenyl)ethan-1-amine, reference compound]
half-life at 1 µM [1, 6]: 6.09 min

COc1cc(C(F)(F)F)c(OC)cc1CCN [Reference Compound 4, 2-(2,5-dimethoxy-4-(trifluoromethyl)phenyl)ethan-1-amine, reference compound]
half-life at 1 µM [1, 6]: 16.6 min | Ki (5-HT2A receptor): 3.4 nM

NCCc1ccc2c(c1)OCO2 [Reference Compound 5, 3,4-Methylenedioxyphenethylamine, reference compound]
disappearance in RLM, NADPH dependence (Rat Liver Microsomes): NADPH-independent | half-life at 1 µM [1, 3]: < 5 min | half-life at 1 µM (MAO-B): 7.91 min | half-life at 1 µM (MAO-A; [4]): ≤ 8 min | half-life at 1 µM (MAO-A; [5]): 8.34 min

C[C@H](N)Cc1ccc2c(c1)OCO2 [S-MDA]
Function 5-HT2A EMAX (5-HT2A (h)): EMAX = 89% | EC50 (5-HT2A (h)): 18200 nM
